The results in this text go back to patent US20170209445A1, “KINASE INHIBITORS” (Respivert Limited, priority 2014, published 2017).

Series [1] has as its system PBMCs. As to the kind of experiment: LPS-induced IL-8 release in PBMC cells. The format is cell-based. The settings on record: Homo sapiens, LPS-stimulated PBMCs, read-out: IC50 Values for Inhibition of Cytokine Release PBMCs IL-8. In outline:
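Healthy-donor PBMCs isolated by density gradient were pretreated with compound for 2 h, then stimulated with 1 ng/mL LPS (E. coli 0111:B4) for 24 h at 37° C., 5% CO2. IL-8 and TNFα in supernatants measured by sandwich ELISA.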

Series [2] deals with PBMCs. Put plainly: IFN gamma release in CD3/CD28 stimulated PBMC cells. It is filed as cell-based. The settings on record: Homo sapiens, read-out: IC50 Values for Inhibition of Cytokine Release PBMCs IFNγ. As for the experimental part:
(§1) PBMCs from healthy subjects are separated from whole blood using a density gradient (Lymphoprep, Axis-Shield Healthcare). Cells are added to a 96 well plate pre-coated with a mixture of CD3/CD28 monoclonal antibodies (0.3 μg/mL eBioscience and 3 μg/mL BD Pharmingen respectively). Compound at the desired concentration is then added to the wells and the plate left for 3 days under normal tissue culture conditions. Supernatants are harvested and IL-2 and IFN gamma release determined by Sandwich ELISA (Duo-set, R&D System). The IC50 is determined from the dose response curve.

Series [3] addresses T1, p38 MAPKα (Homo sapiens, UniProt Q16539).
T1 construct: purchased Invitrogen
Put plainly: p38 MAPKα enzyme inhibition (Method 2), FRET Z-LYTE. It is filed as biochemical. As for the experimental part: (§2) The enzyme inhibitory activities of compounds disclosed herein are determined by FRET using synthetic peptides labelled with both donor and acceptor fluorophores (Z-LYTE, Invitrogen Ltd., Paisley, UK).
The inhibitory activities of test compounds against the p38 MAPKα isoform (MAPK14: Invitrogen), are evaluated indirectly by determining the level of activation/phosphorylation of the down-stream molecule, MAPKAP-K2. The p38 MAPKα protein (80 ng/mL, 2.5 μL) is mixed with the test compound (2.5 μL of either 4 μg/mL, 0.4 μg/mL, 0.04 μg/mL or 0.004 μg/mL) for 2 hr at RT. […] The mixture is incubated for 1 hr at RT. Development reagent (protease, 5 μL) is added for 1 hr prior to detection in a fluorescence microplate reader (Varioskan® Flash, ThermoFisher Scientific).
This method follows the same steps as Method 1 above, but utilises a higher concentration of the p38 MAPKα protein (2.5 μL of 200 ng/mL protein instead of 2.5 μL of 80 ng/mL protein) for mixing with the test compound.
(§3) In all cases, the site-specific protease cleaves non-phosphorylated peptide only and eliminates the FRET signal. Phosphorylation levels of each reaction are calculated using the ratio of coumarin emission (donor) over fluorescein emission (acceptor), for which high ratios indicate high phosphorylation and low ratios indicate low phosphorylation levels.

Series [4] has as its target T2, c-Src (Homo sapiens, UniProt P12931).
T2 construct: purchased Invitrogen
Put plainly: c-Src enzyme inhibition, FRET Z-LYTE. It is filed as biochemical. As for the experimental part:
as §2
(§4) The inhibitory activities of compounds of the invention against c-Src and Syk enzymes (Invitrogen), are evaluated in a similar fashion to that described hereinabove. The relevant enzyme (3000 ng/mL or 2000 ng/mL respectively, 2.5 μL) is incubated with the test compound (either 4 μg/mL, 0.4 μg/mL, 0.04 μg/mL, or 0.004 μg/mL, 2.5 μL each) for 2 hr at RT. The FRET peptides (8 μM, 2.5 μL), and appropriate ATP solutions (2.5 μL, 800 μM for c-Src, and 60 μM ATP for Syk) are then added to the enzymes/compound mixtures and incubated for 1 hr. Development reagent (protease, 5 μL) is added for 1 hr prior to detection in a fluorescence microplate reader (Varioskan® Flash, ThermoFisher Scientific).
as §3

For series [5], the target named is T3, Syk (Homo sapiens, UniProt P43405).
T3 construct: purchased Invitrogen
Put plainly: Syk enzyme inhibition, FRET Z-LYTE. The format is biochemical. The protocol: as §2, §4, §3

Series [6] concerns Jurkat cells. Put plainly: Cell cytotoxicity assay (Jurkat cell viability). The format is cell-based, human. The settings on record: 24 hours. As for the experimental part: 1×10^5 Jurkat cells (immortalised human T lymphocytes) are added to the appropriate number of wells of a 96 well plate in 100 μL of media (RPMI supplemented with 10% foetal bovine serum). 1 μL of DMSO control (final concentration 1.0% v/v) or test compound (final concentration 20, 5 or 1 μg/mL) is added to the wells and incubated at 37° C., 5% CO2. After 24 hours, the plate is centrifuged at 1200 rpm for 3 minutes and the supernatant discarded. Cells are then resuspended in 150 μL (final concentration 7.5 μg/mL) of propidium iodide (PI) in PBS and incubated at 37° C., 5% CO2 for 15 minutes. After 15 minutes, cells are analysed by flow cytometry (BD accuri) using the FL3 window. The % viability is calculated as the % of cells that are PI negative in the test wells normalised to the DMSO control.

Series [7] deals with PBMCs. Put plainly: Cell mitosis assay in PBMCs. The format is cell-based, human. As for the experimental part:
Peripheral blood mononucleocytes (PBMCs) from healthy subjects are separated from whole blood (Quintiles, London, UK) using a density gradient (Histopaque®-1077, Sigma-Aldrich, Poole, UK). The PBMCs (3 million cells per sample) are subsequently treated with 2% PHA (phytohaemagglutinin, Sigma-Aldrich, Poole, UK) for 48 hr, followed by a 20 hr exposure to varying concentrations of test compounds. At 2 hr before collection, PBMCs are treated with demecolcine (0.1 μg/mL; Invitrogen, Paisley, UK) to arrest cells in metaphase. To observe mitotic cells, PBMCs are permeabilised and fixed by adding Intraprep (50 μL; Beckman Coulter, France), and stained with anti-phospho-histone 3 (0.26 ng/L; #9701; Cell Signalling, Danvers, Mass.) and propidium iodide (1 mg/mL; Sigma-Aldrich, Poole, UK) as previously described (Muehlbauer P. A. and Schuler M. J., Mutation Research, 2003, 537:117-130). Fluorescence is observed using an ATTUNE flow cytometer (Invitrogen, Paisley, UK), gating for lymphocytes.

In series [8] the target is T3, Syk. As to the kind of experiment: KINOMEscan dissociation constant, Syk. The format is binding. The protocol:
(§5) Kinase enzyme binding activities of compounds disclosed herein may be determined using a proprietary assay which measures active site-directed competition binding to an immobilized ligand (Fabian, M. A. et al., Nature Biotechnol., 2005, 23:329-336). These assays may be conducted by DiscoverX (formerly Ambit; San Diego, Calif.). The percentage inhibition produced by incubation with a test compound may be calculated relative to the non-inhibited control.

For series [9], the target named is T4, Lck (Homo sapiens, UniProt P06239).
T4 construct: purchased DiscoveRx Corporation (LeadHunter Discover Services, KINOMEscan)
As to the kind of experiment: KINOMEscan dissociation constant, Lck. It is filed as binding. As for the experimental part: as §5

The target in series [10] is T5, GSK3α (Homo sapiens, UniProt P49840).
T5 construct: purchased Invitrogen
Put plainly: GSK3α enzyme inhibition (Method 2), FRET Z-LYTE. It is filed as biochemical. The protocol: as §2
The inhibitory activities of compounds of the invention against the GSK 3α enzyme isoform (Invitrogen), are evaluated by determining the level of activation/phosphorylation of the target peptide. The GSK3-α protein (500 ng/mL, 2.5 μL) is mixed with the test compound (2.5 μL at either 4 μg/mL, 0.4 μg/mL, 0.04 μg/mL, or 0.004 μg/mL) for 2 hr at RT. The FRET peptide (8 μM, 2.5 μL), which is a phosphorylation target for GSK3α, and ATP (40 μM, 2.5 μL) are then added to the enzyme/compound mixture and the resulting mixture incubated for 1 hr. Development reagent (protease, 5 μL) is added for 1 hr prior to detection in a fluorescence microplate reader (Varioskan® Flash, ThermoFisher Scientific).
as §3
This method follows the same steps as Method 1 above, but utilises a shorter period of mixing of the test compound (105 minutes instead of 2 hours) with the GSK3-α protein.

For series [11], the target named is T1, p38 MAPKα. Put plainly: KINOMEscan dissociation constant, p38 MAPKα. It is filed as binding. As for the experimental part:
as §5

Series [12] has as its system PBMCs. Put plainly: IL-2 release in CD3/CD28 stimulated PBMC cells. It is filed as cell-based. The settings on record: Homo sapiens, read-out: IC50 Values for Inhibition of Cytokine Release PBMCs IL-2. As for the experimental part:
as §1

pIC50, pKd: −log10 of the molar value.

The term pIC50 denotes the IC50 on a negative log10 scale, so that one unit is a factor of ten. The inhibition is the relative decrease from the control value, in per cent. Low values mean a weak effect, high ones a strong effect. As usually defined, the pKd is −log10 of the Kd, conventionally taken in molar units. Low readings indicate a large Kd, high ones a small Kd.

T1 sequence (Q16539 whole entry): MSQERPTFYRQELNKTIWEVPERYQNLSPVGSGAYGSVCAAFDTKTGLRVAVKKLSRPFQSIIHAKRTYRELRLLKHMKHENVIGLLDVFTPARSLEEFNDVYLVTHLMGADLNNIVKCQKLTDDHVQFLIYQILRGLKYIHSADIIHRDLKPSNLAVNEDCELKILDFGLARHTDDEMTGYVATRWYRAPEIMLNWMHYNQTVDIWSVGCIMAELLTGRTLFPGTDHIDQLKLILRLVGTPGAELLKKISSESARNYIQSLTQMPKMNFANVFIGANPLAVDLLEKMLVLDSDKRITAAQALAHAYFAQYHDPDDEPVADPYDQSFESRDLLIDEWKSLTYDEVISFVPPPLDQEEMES
T2 sequence (P12931 whole entry): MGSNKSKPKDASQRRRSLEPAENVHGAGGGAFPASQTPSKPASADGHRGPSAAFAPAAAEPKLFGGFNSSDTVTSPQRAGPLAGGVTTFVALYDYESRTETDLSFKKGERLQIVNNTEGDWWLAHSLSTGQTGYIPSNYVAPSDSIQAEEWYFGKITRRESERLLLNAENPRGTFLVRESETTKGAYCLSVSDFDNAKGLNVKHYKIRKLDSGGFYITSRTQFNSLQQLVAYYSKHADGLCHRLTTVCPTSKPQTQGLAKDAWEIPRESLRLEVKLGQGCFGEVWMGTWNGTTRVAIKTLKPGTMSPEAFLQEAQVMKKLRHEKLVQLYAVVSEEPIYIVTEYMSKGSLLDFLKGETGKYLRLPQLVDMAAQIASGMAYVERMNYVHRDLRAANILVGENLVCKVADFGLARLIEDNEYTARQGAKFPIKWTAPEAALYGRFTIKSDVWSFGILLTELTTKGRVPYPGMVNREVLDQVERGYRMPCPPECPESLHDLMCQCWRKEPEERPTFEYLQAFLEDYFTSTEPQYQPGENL
T5 sequence (P49840 whole entry): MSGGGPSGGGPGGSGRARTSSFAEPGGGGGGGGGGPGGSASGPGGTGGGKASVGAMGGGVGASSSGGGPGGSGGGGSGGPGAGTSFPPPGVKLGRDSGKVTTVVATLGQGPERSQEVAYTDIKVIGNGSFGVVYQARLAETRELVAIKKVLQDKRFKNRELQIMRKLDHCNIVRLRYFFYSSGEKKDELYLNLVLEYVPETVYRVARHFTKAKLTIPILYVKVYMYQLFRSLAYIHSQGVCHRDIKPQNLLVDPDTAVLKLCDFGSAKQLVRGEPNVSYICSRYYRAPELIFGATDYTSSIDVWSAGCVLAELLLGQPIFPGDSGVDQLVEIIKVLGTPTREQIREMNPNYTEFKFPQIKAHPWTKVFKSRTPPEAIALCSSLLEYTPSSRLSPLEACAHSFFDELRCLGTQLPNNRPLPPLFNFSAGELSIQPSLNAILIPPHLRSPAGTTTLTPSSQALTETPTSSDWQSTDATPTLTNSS
T4 sequence (P06239 whole entry): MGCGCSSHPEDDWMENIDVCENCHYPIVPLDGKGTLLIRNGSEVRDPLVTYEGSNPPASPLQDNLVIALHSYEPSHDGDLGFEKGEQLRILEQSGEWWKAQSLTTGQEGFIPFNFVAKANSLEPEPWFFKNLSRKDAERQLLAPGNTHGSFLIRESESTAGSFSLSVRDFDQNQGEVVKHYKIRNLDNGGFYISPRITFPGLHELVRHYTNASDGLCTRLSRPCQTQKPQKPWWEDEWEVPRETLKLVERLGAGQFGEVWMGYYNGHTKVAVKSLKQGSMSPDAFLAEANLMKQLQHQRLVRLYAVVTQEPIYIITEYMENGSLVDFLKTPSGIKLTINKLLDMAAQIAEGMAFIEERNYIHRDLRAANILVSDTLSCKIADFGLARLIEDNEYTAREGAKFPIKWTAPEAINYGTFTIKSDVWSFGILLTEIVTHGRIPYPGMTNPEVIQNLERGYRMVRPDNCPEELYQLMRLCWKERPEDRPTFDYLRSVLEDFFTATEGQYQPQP

With `COc1c(NC(=O)c2ccc(C)c(-c3ccc4nc(Nc5cc(OS(C)(=O)=O)cc(C(=O)NCCN6CCOCC6)c5)ncc4c3)c2)cc(C(C)(C)C)cc1NS(C)(=O)=O` [Example 10, 3-((6-(5-((5-(tert-Butyl)-2-methoxy-3-(methylsulfonamido)phenyl)carbamoyl)-2-methylphenyl)-quinazolin-2-yl)amino)-5-((2-morpholinoethyl)carbamoyl)phenyl methanesulfonate], the pIC50 is 8.46 in series [1]; 7.88 in [2]; 7.62 in [3]; 7.70 in series [4]; < 5.93 in series [5]. For the same compound, the “% Viability at 1 μg/mL” value in series [6] came to 91.5%. For the same compound, in series [6], the “% Viability at 5 μg/mL” value was 82.5%. The “% Viability at 20 μg/mL” value in [6] amounted to 77.8%.
As to `COc1cc(Nc2ncc3cc(-c4cc(C(=O)Nc5cc(C(C)(C)C)cc(NS(C)(=O)=O)c5OC)ccc4C)ccc3n2)ccc1C(=O)N1CCS(=O)(=O)CC1` [Example 12, N-(5-(tert-Butyl)-2-methoxy-3-(methylsulfonamido)phenyl)-3-(2-((4-(1,1-dioxidothiomorpholine-4-carbonyl)-3-methoxyphenyl)amino)quinazolin-6-yl)-4-methylbenzamide], the pIC50 is 8.64 in series [1]; 7.90 in series [2]; 8.10 in [3]; 8.40 in series [4]; 6.72 in [5]. For the same compound, the “% Viability at 1 μg/mL” value in [6] was determined as 86.4%. In series [6], the “% Viability at 5 μg/mL” value was 79.3%. The “% Viability at 20 μg/mL” value in series [6] came to 81.0%.
For `COc1cc(Nc2ncc3cc(-c4cc(C(=O)Nc5cc(C(C)(C)C)cc(C(N)=O)c5OC)ccc4C)ccc3n2)cc(C(=O)NCCN2CCOCC2)c1` [Example 3, N-(5-(tert-Butyl)-3-carbamoyl-2-methoxyphenyl)-3-(2-((3-methoxy-5-((2-morpholinoethyl)-carbamoyl)phenyl)amino)quinazolin-6-yl)-4-methylbenzamide], the pIC50 in series [1] was 8.10; in [2] it was 7.74; in series [3] it was 7.92; in series [4], 7.74; in [10], < 4.88; in [5], 6.11. In series [12], the pIC50 is 7.78. In series [7] (Homo sapiens, PBMC, PBMCs, 5 μg/mL), this compound displayed an inhibition at 5 µg/mL of 66.3%. The “impact on cell division (mitosis) in PBMCs, in words” value in series [7] (assay (g), compared with Reference Compound A) is listed as “markedly less active than the Reference Compound A”. Further, the pKd was 7.30 in [8], 8.17 in [9] and 8.41 in series [11]. In [6], the “% Viability at 1 μg/mL” value stood at 100.4%. Further, in [6], the “% Viability at 5 μg/mL” value is given as 82.9%. For the same compound, in series [6], the “% Viability at 20 μg/mL” value stood at 77.5%.
In the case of `COCCOCCOCCOc1cc(Nc2ncc3cc(-c4cc(C(=O)Nc5cccc(C(F)(F)F)c5)ccc4C)ccc3n2)cc(OC)c1` [Example 1, 3-(2-((3-Methoxy-5-(2-(2-(2-methoxyethoxy)ethoxy)ethoxy)phenyl)amino)quinazolin-6-yl)-4-methyl-N-(3-(trifluoromethyl)phenyl)benzamide], the pIC50 in series [1] was 6.87; in series [3], 6.11; in [4] it was 7.85; in [10], < 4.84; in [5], < 5.84.
With `COc1cc(Nc2ncc3cc(-c4cc(C(=O)Nc5cc(C(C)(C)C)cc(NS(C)(=O)=O)c5OC)ccc4C)ccc3n2)cc(C(=O)NCCN2CCOCC2)c1` [Example 5, N-(5-(tert-butyl)-2-methoxy-3-(methylsulfonamido)phenyl)-3-(2-((3-methoxy-5-((2-morpholinoethyl)carbamoyl)phenyl)amino)quinazolin-6-yl)-4-methylbenzamide], the pIC50 in series [1] was 7.99; in [2], 7.52; in [10], < 4.90; in series [12], 7.41. Also, the “% Viability at 1 μg/mL” value in series [6] is 116.5%. The “% Viability at 5 μg/mL” value in [6] is 48.8%. For the same compound, the “% Viability at 20 μg/mL” value in series [6] turned out to be 44.6%.
